Measurements taken from paper PMC5354814, “In silico and in vitro drug screening identifies new therapeutic approaches for Ewing sarcoma” (Oncotarget, 2016).

Assays:
Assay in all cases: Hits validation, dose-response cell proliferation (CellTiter-Glo)
Assay type in all cases: cell-based
A673 = conditions: 12-point dose-response 50 μmol/L to 1 nmol/L, mean ± SD
Method: (§1) For hits validation and combination study, cells were harvested and aliquoted into 384-well plates at concentrations of 750–1,500 cells per well in a total of 20 μl/well using a Matrix Wellmate (Thermo Scientific). Five μl of culture media containing either vehicles or drug were added to each well the next day (drug concentrations range from 1 nmol/L to 50 μmol/L). For combination study, selected drugs were archived in robotically accessible plates, to which media was added in preparation for addition to master plates by a Nimbus 96 liquid-dispensing workstation (Hamilton). Liquid transfers to dilution and assay plates were handled using the same workstation. Each 384-well master plate contained four 9 by 9 dose-matrix blocks, with eight serial two-fold dilutions (concentrations range from 7.8 nmol/L to 1 μmol/L). Additional wells were reserved for untreated, and vehicle-treated control wells. Cell proliferation was evaluated using Cell-Titer Glo® reagents (Promega). IC50 values were determined for each drug using SigmaPlot (Systat Software). The combination index values were calculated using SigmaPlot (Systat Software) and CompuSyn.

CHLA-258 = conditions: 12-point dose-response 50 μmol/L to 1 nmol/L, mean ± SD
Method: as §1

COG-E-352 = conditions: 12-point dose-response 50 μmol/L to 1 nmol/L, mean ± SD
Method: as §1

Hs 822.T. = conditions: control cell line, 12-point dose-response, mean ± SD
Method: as §1

Hs 863.T. = conditions: control cell line, 12-point dose-response, mean ± SD
Method: as §1

RD-ES = conditions: 12-point dose-response 50 μmol/L to 1 nmol/L, mean ± SD
Method: as §1

SK-ES-1 = conditions: 12-point dose-response 50 μmol/L to 1 nmol/L, mean ± SD
Method: as §1

TC-71 = conditions: 12-point dose-response 50 μmol/L to 1 nmol/L, mean ± SD
Method: as §1

Hs 919.T. = conditions: control cell line, 12-point dose-response, mean ± SD
Method: These drugs were chosen based on their known mechanisms and safety profiles. We also tested the synergy between these drug hits (Supplementary Figures S6–S11). […] We evaluated the anti-proliferation effect in combination treatments using the EWS and control cell lines.
as §1

Row | Structure (SMILES) | IC50 (A673; Homo sapiens, A673) [µM] | IC50 (CHLA-258) [µM] | IC50 (COG-E-352) [µM] | IC50 (Hs 822.T.) [µM] | IC50 (Hs 863.T.) [µM] | IC50 (RD-ES; RD-ES) [nM] | IC50 (SK-ES-1; Homo sapiens, SK-ES1) [nM] | IC50 (TC-71; TC-71) [nM] | IC50 (Hs 919.T.) [µM] | IC50 (A673) [µM] | IC50 (RD-ES) [nM] | IC50 (SK-ES-1) [nM] | IC50 (TC-71) [nM]
1 | CN(C)CCOC(=O)COc1ccc(Cl)cc1 [Meclofenoxate] | > 50 | > 50 | > 50 | > 50 | > 50 | > 50000 | > 50000 | > 50000 | > 50 | – | – | – | –
2 | CC[C@]1(O)C[C@@H]2CN(CCc3c([nH]c4ccccc34)[C@@](C(=O)OC)(c3cc4c(cc3OC)N(C)[C@H]3[C@@](O)(C(N)=O)[C@H](O)[C@]5(CC)C=CCN6CC[C@]43[C@@H]65)C2)C1 [Vindesine] | < 0.003 | < 0.003 | < 0.003 | 0.25 ± 0.01 | 0.28 ± 0.01 | < 3 | < 3 | < 3 | 4.58 ± 0.45 | – | – | – | –
3 | CN1CCN(CCCN2c3ccccc3Sc3ccc(C(F)(F)F)cc32)CC1 [Trifluoperazine] | 15.6 ± 3.55 | 13.6 ± 4.8 | 12.1 ± 1.58 | 10.6 ± 2.45 | 9.84 ± 2.28 | 18200 ± 2540 | 16700 ± 3140 | 16400 ± 3460 | 16.8 ± 4.2 | – | – | – | –
4 | COc1cccc2c1C(=O)c1c(O)c3c(c(O)c1C2=O)C[C@@](O)(C(C)=O)C[C@@H]3O[C@H]1C[C@H](N)[C@H](O)[C@H](C)O1 [Daunorubicin] | 0.05 ± 0.02 | < 0.003 | < 0.003 | 0.15 ± 0.12 | 0.18 ± 0.08 | 50 ± 30 | 40 ± 30 | 4.6 ± 0.4 | 0.42 ± 0.15 | – | – | – | –
5 | COc1c2ccoc2nc2c(OC)c(OCC(O)C(C)(C)O)ccc12 (stereo not drawn) [Evoxine] | > 50 | > 50 | > 50 | > 50 | > 50 | > 50000 | > 50000 | > 50000 | > 50 | – | – | – | –
6 | OCCN1CCN(CCCN2c3ccccc3Sc3ccc(C(F)(F)F)cc32)CC1 [Fluphenzaine] | – | 19 ± 6.79 | 16.1 ± 7.51 | 22.7 ± 7.23 | 20.5 ± 2.88 | – | – | – | 15.5 ± 3.68 | 10.5 ± 2.89 | 14300 ± 3210 | 16300 ± 3660 | 17000 ± 6680
7 | CC1=C(/C=C/C(C)=C/C=C/C(C)=C/C(=O)O)C(C)(C)CCC1 [Tretinoin] | > 50 | 4.95 ± 3.82 | 35.5 ± 6.28 | > 50 | > 50 | > 50000 | > 50000 | > 50000 | > 50 | – | – | – | –
8 | COC1=C2C[C@@H](C)C[C@H](OC)[C@H](O)[C@@H](C)/C=C(\C)[C@H](OC(N)=O)[C@@H](OC)/C=C\C=C(/C)C(=O)NC(=CC1=O)C2=O [Geldanamycin] | 1.93 ± 0.05 | < 0.003 | < 0.003 | > 20 | > 20 | 50 ± 3 | 30 ± 2 | < 3 | > 20 | – | – | – | –
9 | COc1ccc(C[C@H](N)C(=O)N[C@H]2[C@@H](O)[C@H](n3cnc4c(N(C)C)ncnc43)O[C@@H]2CO)cc1 [Puromycin] | 0.25 ± 0.01 | 0.06 ± 0.02 | 0.05 ± 0.01 | 0.55 ± 0.13 | 1.02 ± 0.26 | 350 ± 30 | 350 ± 100 | 80 ± 50 | 0.89 ± 0.03 | – | – | – | –
10 | CC1=CC(=O)c2ccccc2C1=O [Menadione] | 6.8 ± 1.35 | 3.64 ± 2.08 | 5.62 ± 1.31 | 12.2 ± 2.12 | 14.2 ± 3.2 | 10600 ± 3200 | 5560 ± 1240 | 2940 ± 3480 | 15.8 ± 2.35 | – | – | – | –
11 | C[n+]1cc2c3c(ccc2c2ccc4cc5c(cc4c21)OCO5)OCO3 [Sanguinarine] | 0.75 ± 0.14 | 0.95 ± 0.31 | 1.05 ± 0.18 | 1.55 ± 0.26 | 1.25 ± 0.14 | 1500 ± 120 | 1870 ± 510 | 200 ± 80 | 1.44 ± 0.32 | – | – | – | –
12 | Nc1ccccc1NC(=O)c1ccc(CNC(=O)OCc2cccnc2)cc1 [MS275] | 2.5 ± 1.02 | 0.15 ± 0.03 | 1.47 ± 0.54 | > 25 | > 25 | 2000 ± 850 | 2400 ± 1010 | 1530 ± 490 | > 50 | – | – | – | –
13 | COc1cc(NC(C)CCCN)c2ncccc2c1 (stereo not drawn) [Primaquine] | 32.5 ± 6.58 | 7.14 ± 2.21 | 13.3 ± 4.09 | > 25 | > 25 | > 25000 | > 25000 | 14300 ± 3710 | > 50 | – | – | – | –
